Assay results reported in patent US6350839B2, “Hydrolysis-stable and polymerizable acrylophosphonic acid monoesters” (Ivoclar Vivadent AG, priority 2000, dated 2002).
≈ marks a conversion by molar mass, not a printed value. Where two headings read alike, the source gives them in different places.

How the values were obtained:
Assay type in all cases: physicochemical
[1] = pH value (acid strength) of a 20% monomer solution; settings: text: 1:1 mixture of ethanol and water
Description: (§1) The solubility of monomer 1 in water and ethanol was determined and the pH value of a 20% solution of the monomer in a 1:1 mixture of ethanol and water measured.

[2] = Solubility of monomer in water and ethanol
Description: as §1

[3] = Hydrolytic stability by weekly 1H-NMR of stored solution; settings: 20% solution in 1:1 water/ethanol, stored at 37° C., 8-week investigation period
Description: Monomer 1 is dissolved in a 1:1 mixture of water and ethanol and a 20% solution is stored at 37° C. The ^1H-NMR spectrum of the solution is recorded weekly.

[4] = water, read-out: water solubility

Row | Compound | pH value of a 20% solution [1] | solubility in ethanol ([2]; ethanol) | solubility [2, 4] [mg/mL] | solubility ([2]; ethanol, organic solvent or mixture, read-out: solubility in ethanol) [mg/mL] | hydrolytic stability (change in 1H-NMR spectrum) [3]
1 | C=C(COCCP(=O)(O)O)C(=O)O [Comparison monomer, 2-[4-dihydroxyphosphoryl-2-oxa-butyl]-acrylic acid, reference compound] | 1.25 | practically insoluble | ~400 (≈ 1900 mM) | – | –
2 | C=C(COCCP(=O)(O)OC)C(=O)O [Monomer 1, 2-[4-hydroxymethoxyphosphoryl-2-oxa-butyl]-acrylic acid] | 0.61 | – | > 500 | > 500 | no change in the spectrum
